Source: BigSolDB 2.1

CCOC(=O)C1=C[C@]2(CC)CCCN3CCc4c(n1c1ccccc41)[C@@H]32
solubility (mole fraction) (in 2-butanone, 283.15 K): 0.00526
solubility (mole fraction) (in 2-butanone, 288.15 K): 0.00649
solubility (mole fraction) (in 2-butanone, 293.15 K): 0.00793
solubility (mole fraction) (in 2-butanone, 298.15 K): 0.00962
solubility (mole fraction) (in 2-butanone, 303.15 K): 0.0118
solubility (mole fraction) (in 2-butanone, 308.15 K): 0.0142
solubility (mole fraction) (in 2-butanone, 313.15 K): 0.017
solubility (mole fraction) (in 2-butanone, 318.15 K): 0.0203
solubility (mole fraction) (in 2-butanone, 323.15 K): 0.0239
solubility (mole fraction) (in cyclohexane, 283.15 K): 0.00133
solubility (mole fraction) (in cyclohexane, 288.15 K): 0.0017
solubility (mole fraction) (in cyclohexane, 293.15 K): 0.00216
solubility (mole fraction) (in cyclohexane, 298.15 K): 0.00274
solubility (mole fraction) (in cyclohexane, 303.15 K): 0.00346
solubility (mole fraction) (in cyclohexane, 308.15 K): 0.00433
solubility (mole fraction) (in cyclohexane, 313.15 K): 0.00537
solubility (mole fraction) (in cyclohexane, 318.15 K): 0.00656
solubility (mole fraction) (in cyclohexane, 323.15 K): 0.00802
solubility (mole fraction) (in ethanol, 283.15 K): 0.000492
solubility (mole fraction) (in ethanol, 288.15 K): 0.000641
solubility (mole fraction) (in ethanol, 293.15 K): 0.00082
solubility (mole fraction) (in ethanol, 298.15 K): 0.00101
solubility (mole fraction) (in ethanol, 303.15 K): 0.00126
solubility (mole fraction) (in ethanol, 308.15 K): 0.00158
solubility (mole fraction) (in ethanol, 313.15 K): 0.00197
solubility (mole fraction) (in ethanol, 318.15 K): 0.00245
solubility (mole fraction) (in ethanol, 323.15 K): 0.00302
solubility (mole fraction) (in ethyl acetate, 283.15 K): 0.0039
solubility (mole fraction) (in ethyl acetate, 288.15 K): 0.00481
solubility (mole fraction) (in ethyl acetate, 293.15 K): 0.00585
solubility (mole fraction) (in ethyl acetate, 298.15 K): 0.00718
solubility (mole fraction) (in ethyl acetate, 303.15 K): 0.00879
solubility (mole fraction) (in ethyl acetate, 308.15 K): 0.0106
solubility (mole fraction) (in ethyl acetate, 313.15 K): 0.0127
solubility (mole fraction) (in ethyl acetate, 318.15 K): 0.0154
solubility (mole fraction) (in ethyl acetate, 323.15 K): 0.0185
solubility (mole fraction) (in isopropanol, 283.15 K): 0.000345
solubility (mole fraction) (in isopropanol, 288.15 K): 0.000474
solubility (mole fraction) (in isopropanol, 293.15 K): 0.000643
solubility (mole fraction) (in isopropanol, 298.15 K): 0.000834
solubility (mole fraction) (in isopropanol, 303.15 K): 0.00108
solubility (mole fraction) (in isopropanol, 308.15 K): 0.00137
solubility (mole fraction) (in isopropanol, 313.15 K): 0.00184
solubility (mole fraction) (in isopropanol, 318.15 K): 0.00245
solubility (mole fraction) (in isopropanol, 323.15 K): 0.00323
solubility (mole fraction) (in methanol, 283.15 K): 0.000378
solubility (mole fraction) (in methanol, 288.15 K): 0.000476
solubility (mole fraction) (in methanol, 293.15 K): 0.000608
solubility (mole fraction) (in methanol, 298.15 K): 0.000736
solubility (mole fraction) (in methanol, 303.15 K): 0.00089
solubility (mole fraction) (in methanol, 308.15 K): 0.0011
solubility (mole fraction) (in methanol, 313.15 K): 0.00136
solubility (mole fraction) (in methanol, 318.15 K): 0.00166
solubility (mole fraction) (in methanol, 323.15 K): 0.00204
solubility (mole fraction) (in methyl acetate, 283.15 K): 0.00262
solubility (mole fraction) (in methyl acetate, 288.15 K): 0.00329
solubility (mole fraction) (in methyl acetate, 293.15 K): 0.00416
solubility (mole fraction) (in methyl acetate, 298.15 K): 0.00517
solubility (mole fraction) (in methyl acetate, 303.15 K): 0.00646
solubility (mole fraction) (in methyl acetate, 308.15 K): 0.00794
solubility (mole fraction) (in methyl acetate, 313.15 K): 0.00973
solubility (mole fraction) (in methyl acetate, 318.15 K): 0.0121
solubility (mole fraction) (in methyl acetate, 323.15 K): 0.0148
solubility (mole fraction) (in n-butanol, 283.15 K): 0.000936
solubility (mole fraction) (in n-butanol, 288.15 K): 0.00127
solubility (mole fraction) (in n-butanol, 293.15 K): 0.0017
solubility (mole fraction) (in n-butanol, 298.15 K): 0.0022
solubility (mole fraction) (in n-butanol, 303.15 K): 0.00285
solubility (mole fraction) (in n-butanol, 308.15 K): 0.00374
solubility (mole fraction) (in n-butanol, 313.15 K): 0.0048
solubility (mole fraction) (in n-butanol, 318.15 K): 0.00632
solubility (mole fraction) (in n-butanol, 323.15 K): 0.00806
solubility (mole fraction) (in n-propanol, 283.15 K): 0.000727
solubility (mole fraction) (in n-propanol, 288.15 K): 0.00098
solubility (mole fraction) (in n-propanol, 293.15 K): 0.00126
solubility (mole fraction) (in n-propanol, 298.15 K): 0.00164
solubility (mole fraction) (in n-propanol, 303.15 K): 0.00208
solubility (mole fraction) (in n-propanol, 308.15 K): 0.00268
solubility (mole fraction) (in n-propanol, 313.15 K): 0.00343
solubility (mole fraction) (in n-propanol, 318.15 K): 0.00435
solubility (mole fraction) (in n-propanol, 323.15 K): 0.00528
